Laboratory results from patent US10900093B2, “Molecular marker of plasmodium falciparum artemisinin resistance” (priority 2013, dated 2021).

Assays:
Type in all cases: cell-based, Plasmodium falciparum
[1] = system: Cambodian parasite isolates (0-3h post-invasion ring-stage parasites); test: Ring-stage Survival Assay (RSA0-3h), culture-adapted Cambodian parasite isolates stratified by K13-propeller allele
Experimental: Fifty clinical P. falciparum isolates from Cambodia (collected in 2010 and 2011) were adapted to in vitro culture as described by Witkowski et al.^45. […] Parasite DNA was extracted from frozen blood aliquots (200 μl) using the Mini blood kit (Qiagen).
(§1) The Ring-stage Survival Assay (RSA^0-3h) was carried out as described by Witkowski et al^13 using highly synchronous parasite cultures. In brief, 0-3h post-invasion ring-stage parasites were exposed to 700 nM DHA [dihydroartemisinin, obtained from WWARN (www.wwarn.org/research/tools/qaqc)] or its solvent DMSO for 6 h, washed and then cultivated for the next 66 h without drug. Survival rates were assessed microscopically by counting in Giemsa-stained thin smears the proportion of viable parasites that developed into second-generation rings or trophozoites with normal morphology.

[2] = system: F32-ART5 parasite line (0-3h post-invasion ring-stage parasites); test: Ring-stage Survival Assay (RSA0-3h), F32-ART5 lineage; conditions: for RSA0-3h survival rate (median): 700 nM DHA for 6 h, n=3
Experimental: as §1
(§2) The F32-ART5 samples tested in the Ring-stage Survival Assay (RSA^0-3h) were collected at the time of the 17th, 48th and 122nd pressure cycles (0.04, 2.7 and 9 μM ART), respectively. The F32-TEM sample was collected at the last mock pressure cycle. The RSA0-3h survival rates were determined in triplicate experiments with different batches of red blood cells, and evaluated as above using Giemsa-stained thin smears read by two independent microscopists (B. W. and F. B.-V.). Survival rates were compared using Mann-Whitney U test. […] The RSA^0-3h survival rate of the F32-TEM line was also determined in triplicate experiments (n=3, median 0%, IQR 0-0.05, P=0.81 for #TEM vs. #17, Mann-Whitney U test).

[3] = system: F32-TEM line (0-3h post-invasion ring-stage parasites); test: Ring-stage Survival Assay (RSA0-3h), F32-TEM line; conditions: last mock pressure cycle, 700 nM DHA for 6 h, n=3
Experimental: as §1, §2

3D7 parasites = test: Ring-stage Survival Assay (RSA0-3h), control 3D7 parasites
Experimental: as §1

C[C@H]1[C@@H](O)O[C@@H]2O[C@@]3(C)CC[C@H]4[C@H](C)CC[C@@H]1[C@@]24OO3 [DHA, dihydroartemisinin]
RSA0-3h survival rate (median) ([1]; isolates with wildtype K13-propeller alleles, n=16): 0.17%
RSA0-3h survival rate (median) ([1]; wildtype K13-propeller, n=17 (FIG. 2), 700 nM DHA for 6 h): 0.16%
RSA0-3h survival rate (median) ([1]; {}): 18.8%
RSA0-3h survival rates (range) ([1]; {}): 3.8%-58%
RSA0-3h survival rate (median) ([2]; F32-ART5 at drug-pressure cycle #17): 0%
RSA0-3h survival rate (median) ([2]; F32-ART5 at drug-pressure cycle #48): 11.7%
RSA0-3h survival rate (median) ([2]; F32-ART5 at drug-pressure cycle #122): 12.8%
RSA0-3h survival rate ([2]; F32-ART5 lineage after appearance of PF3D7_0110400 D56V and PF3D7_1343700 M476I mutations): 12.8%
RSA0-3h survival rate ([2]; F32-ART5 lineage before appearance of PF3D7_0110400 D56V and PF3D7_1343700 M476I mutations): less than 0.01%
RSA0-3h survival rate (median) [3]: 0%
RSA0-3h survival rate (3D7 parasites): 0.04%
